Residues, ends and D or L forms follow the SMILES beside them. No end group written: not given here. *: point of attachment. 5FAM = O=C1OC2(c3ccc(O)cc3Oc3cc(O)ccc32)c2ccc(C(=O)*)cc21; 5‑FAM = 5-carboxyfluorescein label
Legend:
CI NdelH, D2delC = test: Fluorescence polarisation competition assay, 5-FAM NCAPH peptide and CI NdelH, D2delC; assay type: binding, human; conditions: 100 nM 5-FAM-NCAPH55-77 with 4 μM CID2ΔC,NΔH
Method: FP competition assays were performed for NCAPD2 peptide, using a fixed concentration of 100 nM of F-NCAPD2-C1376-1398 and 6 μM of NCAPG, in the presence or absence of 10 μM KIF4A WT1206-1228 or KIF4A Mut1206-1228 peptide. Similar assays were performed for NCAPH2 peptide, using a fixed concentration of 100 nM of F-N-NCAPH55-77 and 4 μM CI NdelH, D2delC, in the presence or absence of 100 μM of KIF4A WT1206-1228 or KIF4A Mut1206-1228 peptide.
(§1) Background was determined by measuring 100 nM of F-NCAPD2-C1376-1398 or F-N-NCAPH55-77 in the presence of peptide buffer (20 mM HEPES pH 8), KIF4A WT1206-1228 or KIF4A Mut1206-1228 peptide, and subtracted from each measurement. Assay was performed with three technical repeats, setting up a new plate with distinct protein aliquot each time, reading the plate three times to ensure equilibrium. Data analysed and plotted using GraphPad Prism.

NCAPG [1] = target: T1, NCAPG (Homo sapiens, UniProt Q9BPX3); test: Fluorescence polarisation binding assay of 5-FAM peptides with NCAPG; conditions: FP, 100 nM 5-FAM peptide; Kd not fit
T1 construct: ystrep (Strep tag); made in house; host or cells: Sf9 insect cells (baculovirus)
Method: (§2) Fluorescence polarisation binding assays were performed by mixing 100 nM of 5-FAM labelled peptide (Reagents and Tools Table) with indicated concentration of protein in FP buffer (20 mM HEPES pH 8, 150 mM KCl, 2.5 mM MgCl, 5% glycerol, 1 mM DTT) and incubated at room temperature for 15 min before reading the plate with a POLARstar Omega plate reader (BMG). The plate was read three times at 5 min intervals to ensure samples reached equilibrium and three technical replicates were performed, setting up a new plate, with distinct protein aliquot in each case. Data was analysed and plotted in Graphpad Prism and Kd fit using the following: FP=FPmax/2[Pep]([C]+[Pep]+Kd)−([C]+[Pep]+Kd)^2−4.[C].[Pep] Where [C] and [Pep] are the concentration, in μM, of condensin and 5-FAM labelled peptide respectively, FPmax the maximum change in fluorescence polarisation in mP and Kd is the equilibrium dissociation constant. Fit curves are plotted, with standard deviation.

[2] = target: T2, CID2ΔC (condensin I lacking NCAPD2 C-terminal region) (Homo sapiens, UniProt Q9BPX3); test: Fluorescence polarisation binding assay of 5-FAM peptides with CID2ΔC; conditions: FP, 100 nM 5-FAM peptide titrated with CID2ΔC, three technical replicates, ± standard error
T2 construct: made in house; host or cells: Sf9 insect cells (baculovirus)
Method: as §2

condensin I [3] = test: ATPase activity assay (EnzCheck phosphate assay), basal; assay type: biochemical, human; conditions: for effect of peptide on ATPase activity of CI: 50 nM CI
Method: ATPase assays were performed based on the method described previously (Voulgaris and Gligoris, [2019]) using the EnzCheck phosphate assay kit (Invitrogen). Condensin I complexes were used at a final concentration of 50 nM, while HAWK subunits were used at 100 nM and peptides were used at 50 μM. Basal ATPase assays were performed with final salt concentration of 100 mM KCl. DNA titrations were performed with 50 bp dsDNA annealed by heating to 98 degrees and slowly cooling in annealing buffer (10 mM Tris pH 7.5, 50 mM NaCl, 1 mM EDTA).
Plate was read with a POLARstar Omega plate reader (BMG).

NCAPG [4] = target: T1, NCAPG; test: Fluorescence polarisation competition assay, 5-FAM NCAPD2 peptide and NCAPG; assay type: binding; conditions: 100 nM 5-FAM-NCAPD2_1376-1398, 10 μM competing peptide, mean ± SD
Method: […] Similar assays were performed for NCAPH2 peptide, using a fixed concentration of 100 nM of F-N-NCAPH55-77 and 4 μM CI NdelH, D2delC, in the presence or absence of 100 μM of KIF4A WT1206-1228 or KIF4A Mut1206-1228 peptide.
as §1

condensin I [5] = test: Single-molecule loop extrusion assay, loop extrusion rate; assay type: biochemical, human; conditions: without flow, 0.75 nM-3 nM protein, peptide at 1000x
Method: Real-time imaging of the loop extrusion by condensin I was carried out in the aforementioned flow cells as follows. The channel was washed with T50 buffer (40 mM Tris-HCl pH 8.0, 50 mM NaCl, 0.2 mM EDTA), incubated with 1 µM Streptavidin in T50 buffer for 2 min and incubated with 5 mg/ml BSA in T50 buffer for 5 min to further reduce unspecific binding of proteins to the surface. The excess Streptavidin and BSA were washed thoroughly with T50 buffer. Lambda DNA biotinylated at both ends was introduced to the channel at a flow rate of 2 µl/min facilitating surface attachment through the streptavidin–biotin binding. […]
ROIs with a DNA strand that formed a loop were cropped and saved in TIFF format for further analysis. […] The kymographs were built by summing the fluorescence intensity for 11 pixels along the line centred around the DNA axis from the median filtered images. […]
For the determination of the loop extrusion rate, each line in the kymograph was split into three regions: “Up”, “Loop” and “Down” (Fig. 4D). For this, first the loop region was determined as follows: Using the “find_peaks” function from the package signal from the Python module scipy local intensity maxima in each line of the kymograph was determined. […] The loop extrusion rate in Fig. 4G was determined by fitting a linear function f(x) = kx + c to the initial 5 s of the loop growth curve. […]

condensin I [6] = test: Single-molecule loop extrusion assay, fraction of looped DNA; assay type: biochemical, human; conditions: for fraction of looped DNA: 0.5 nM condensin I WT, peptide at 1000x
Method: Real-time imaging of the loop extrusion by condensin I was carried out in the aforementioned flow cells as follows. The channel was washed with T50 buffer (40 mM Tris-HCl pH 8.0, 50 mM NaCl, 0.2 mM EDTA), incubated with 1 µM Streptavidin in T50 buffer for 2 min and incubated with 5 mg/ml BSA in T50 buffer for 5 min to further reduce unspecific binding of proteins to the surface. The excess Streptavidin and BSA were washed thoroughly with T50 buffer. Lambda DNA biotinylated at both ends was introduced to the channel at a flow rate of 2 µl/min facilitating surface attachment through the streptavidin–biotin binding. The flow was adjusted and kept constant with a syringe pump attached to the outlet of the flow cell. Excess DNA was washed thoroughly with T50 buffer.
The surface attached DNA molecules were imaged in the imaging buffer (40 mM Tris-HCl pH 7.5, 2 mM Trolox, 30 mM D-glucose, 50 mM Potassium Glutamate (L-Glutamic acid monopotassium salt monohydrate), 2.5 mM MgCl2, 1 mg/ml BSA, 1 mM TCEP, 2.5 mM ATP, 100 nM Sytox Orange, 30 mg/ml Glucose Oxidase (15 U/ml), 20 mg/ml Catalase (1000 U/ml)). The imaging buffer supplied with used condensin I variant was introduced into the channel at a flow rate of 10 µl/min for 100 s and the flow was stopped afterward. For the activity assay comparing condensin I WT and condensin I ΔNCAPG 1 nM of protein, for the activity assay comparing condensin I WT and condensin I WT supplied with KIF4A peptide 0.5 nM of protein and 1000× of the KIF4A peptide, for the analysis of loop extrusion rate 0.75 nM–3 nM of protein (in the case of condensin I WT supplied with KIF4A peptide, correspondingly 1000× of KIF4A peptide) was used.
Region of interests (ROIs) containing a single Lambda DNA molecule were chosen manually and annotated using the tools provided by the Python package Napari. For a single loop extrusion experiment, a field of contains ~100–200 DNA strands. Only the strands that were tethered at both ends from the beginning to the end of the data acquisition were considered for the analysis. Each of the DNA strands were manually analysed whether they form at least one loop during an acquisition time of 1000 s, including the initial 100 s of flow. The “fraction of looped DNA” (Fig. 4B,C) was defined as the ratio of the number of the DNA strands which form at least one loop to the total number of DNA strands. This quantity was taken as a measure for the activity of the protein. […] (For 1 nM condensin I WT 4, for 1 nM condensin I ΔNCAPG 10, for 0.5 nM condensin I WT 3, For 0.5 nM condensin I WT supplied with 0.5 µM KIF4A three independent experiments were performed and analysed.) The error bars in the Fig. 4 are given by the standard deviation of these datasets. […]

Compound: 5-FAM-FPQNDDEKERLQRRRSRVFDLQF ({5‑FAM}-FPQNDDEKERLQRRRSRVFDLQF) [5-FAM-NCAPH55–77, 5-FAM labelled peptide of NCAPH residues 55-77]
- FP signal without competitor (CI NdelH, D2delC): 37 ± 7 mP
- FP signal without competitor (CI NdelH, D2delC; listed as NCAPH peptide): ~ 35 mP
- binding to NCAPG (NCAPG [1]): low affinity

Compound: CC[C@H](C)[C@H](NC(=O)[C@@H]1CCCN1C(=O)[C@H](CO)NC(=O)[C@H](CS)NC(=O)CNC(=O)[C@H](CO)NC(=O)[C@H](Cc1ccccc1)NC(=O)[C@H](Cc1ccccc1)NC(=O)[C@H](CO)NC(=O)[C@@H](NC(=O)[C@H](CC(N)=O)NC(=O)[C@H](CO)NC(=O)[C@H](C)NC(=O)[C@H](CC(C)C)NC(=O)[C@H](C)NC(=O)[C@H](CCCNC(=N)N)NC(=O)[C@H](CCCCN)NC(=O)[C@H](CCCCN)NC(=O)[C@H](CCCCN)NC(=O)[C@H](CCCCN)NC(=O)CNC(=O)[C@@H]1CCCN1C(=O)c1ccc2c(c1)C(=O)OC21c2ccc(O)cc2Oc2cc(O)ccc21)[C@@H](C)O)C(=O)N[C@@H](CCC(=O)O)C(=O)O [5-FAM-KIF4A1206–1228] (5FAM-PGKKKKRALASNTSFFSGCSPIE-OH)
- Kd [2]: 2800 ± 200 nM

Compound: KIF4Amut peptide (PGKKAAAAGAAATSFFSGCSPIE)
- Fit rates (condensin I [3]; CI D2delC + peptide, replicate 1): 10.29 ATPase per molecule, per minute
- Fit rates (condensin I [3]; CI D2delC + peptide, replicate 2): 11.11 ATPase per molecule, per minute
- Fit rates (condensin I [3]; CI D2delC + peptide, replicate 3): 10.2 ATPase per molecule, per minute
- Fit rates (condensin I [3]; CI D2delC + peptide, replicate 4): 15.62 ATPase per molecule, per minute
- Fit rates (condensin I [3]; CI D2delC + peptide, replicate 5): 27.72 ATPase per molecule, per minute
- Fit rates (condensin I [3]; CI NdelH + peptide, replicate 1): 29.41 ATPase per molecule, per minute
- Fit rates (condensin I [3]; CI NdelH + peptide, replicate 2): 35.68 ATPase per molecule, per minute
- Fit rates (condensin I [3]; CI NdelH + peptide, replicate 3): 31.03 ATPase per molecule, per minute
- Fit rates (condensin I [3]; CI NdelH D2delC + peptide, replicate 1): 28.18 ATPase per molecule, per minute
- Fit rates (condensin I [3]; CI NdelH D2delC + peptide, replicate 2): 29.84 ATPase per molecule, per minute
- Fit rates (condensin I [3]; CI NdelH D2delC + peptide, replicate 3): 39.65 ATPase per molecule, per minute
- Fit rates (condensin I [3]; CIWT + peptide, replicate 1): 10.26 ATPase per molecule, per minute
- Fit rates (condensin I [3]; CIWT + peptide, replicate 2): 7.215 ATPase per molecule, per minute
- Fit rates (condensin I [3]; CIWT + peptide, replicate 3): 8.551 ATPase per molecule, per minute
- Fit rates (condensin I [3]; CIWT + peptide, replicate 4): 10.06 ATPase per molecule, per minute
- Fit rates (condensin I [3]; CIWT + peptide, replicate 5): 14.77 ATPase per molecule, per minute
- Fit rates (condensin I [3]; CIWT + peptide, replicate 6): 10.26 ATPase per molecule, per minute

Compound: PGKKAAAAGAAATSFFSGCSPIE [KIF4A mut]
- FP signal on addition of competing peptide (NCAPG [4]): not significantly changed
- effect of peptide on ATPase activity of CI (condensin I [3]; 50 μM peptide, 3 repeats): no increase in activity

Compound: PGKKKKRALASNTSFFSGCSPIE [KIF4A1206-1228, KIF4A SLiM peptide, residues 1206-1228, unlabelled]
- loop extrusion rate compared to CIWT (condensin I [5]): no significant difference
- FP signal on addition of competing peptide (CI NdelH, D2delC; 100 μM competing peptide, listed as KIF4a peptide): ~ 20 mP
- fraction of looped DNA (condensin I [6]; experiment 1): 0.9481
- fraction of looped DNA (condensin I [6]; experiment 2): 1
- fraction of looped DNA (condensin I [6]; experiment 3): 0.9388
- tethers having DNA loops (condensin I [6]; 0.5 nM condensin I, with or without 0.5 μM KIF4A1206-1228 peptide, 1000 s acquisition, mean of n = 3 experiments): ~ 96%
- effect of peptide on ATPase activity of CI (condensin I [3]; 50 μM peptide, 3 repeats): small but significant increase
- effect of peptide on ATPase rate of CINΔH (condensin I [3]; 50 nM CINΔH, 50 μM peptide, 3 repeats): no additional stimulation
- effect of peptide on ATPase rate of CINΔH,D3ΔC (condensin I [3]; 50 nM CINΔH,D3ΔC, 50 μM peptide, 3 repeats): no additional stimulation
